Results on 24 molecules are retold here after ChEMBL document CHEMBL3098039, “Urea/oxalamide tethered β-lactam-7-chloroquinoline conjugates: synthesis and in vitro antimalarial evaluation” (Eur J Med Chem, 2014).

Each structure is given as a SMILES string.

Test system in one data set: not listed separately
Nature of the data set: Cytotoxicity against human HeLa cells assessed as cell viability at 1 uM after 24 hrs by trypan blue assay relative to untreated control. It counts as cell-based. The conditions noted are these: read-out: Activity.
`COc1cccc2c1C(=O)c1c(O)c3c(c(O)c1C2=O)C[C@@](O)(C(=O)CO)C[C@@H]3O[C@H]1C[C@H](N)[C@H](O)[C@H](C)O1` [DOXORUBICIN]: the viability at 24 h, 1 µM worked out at 62%.

Test system in another data set: not listed separately
The data set is described as follows: Cytotoxicity against human HeLa cells assessed as cell viability at 10 uM after 24 hrs by trypan blue assay relative to untreated control. It counts as cell-based. As to conditions: read-out: Activity.
Take `Cc1ccc(N2C(=O)[C@H](NC(=O)NCCCCCCNc3ccnc4cc(Cl)ccc34)[C@@H]2/C=C/c2ccccc2)cc1` (racemic): the viability at 24 h, 10 µM was 90%.

As to `O=C(NCCCCCCNc1ccnc2cc(Cl)ccc12)C(=O)N[C@@H]1C(=O)N(C2CCCCC2)[C@@H]1/C=C/c1ccccc1` (racemic), the viability at 24 h, 10 µM stood at 90%.

A further data set deals with Plasmodium falciparum. Nature of the data set: Antiplasmodial activity against chloroquine-resistant ring stage Plasmodium falciparum W2 assessed as parasitemia after 48 hrs by flow cytometry. It counts as functional, organism-based. The conditions noted are these: W2, 48 h. (A flow cytometer gives signals particle by particle.)
Usually IC50 stands for the concentration that inhibits the measured activity by half. For the molecule `O=C(NCCNc1ccnc2cc(Cl)ccc12)N[C@H]1C(=O)N(C2CCCCC2)[C@H]1/C=C/c1ccccc1` (mixture of isomers), the IC50 was 157 nM.

For `Cc1ccc(N2C(=O)[C@H](NC(=O)NCCNc3ccnc4cc(Cl)ccc34)[C@@H]2/C=C/c2ccccc2)cc1` (mixture of isomers), the IC50 came to 53.1 nM.

On to `Cc1ccc(N2C(=O)[C@H](NC(=O)NCCCCNc3ccnc4cc(Cl)ccc34)[C@@H]2/C=C/c2ccccc2)cc1` (mixture of isomers), for which the IC50 was determined as 149 nM.

Turning to `O=C(NCCCNc1ccnc2cc(Cl)ccc12)C(=O)N[C@@H]1C(=O)N(C2CCCCC2)[C@@H]1/C=C/c1ccccc1` (mixture of isomers), the IC50 turned out to be 121 nM.

Regarding `O=C(NCCCCNc1ccnc2cc(Cl)ccc12)C(=O)N[C@@H]1C(=O)N(C2CCCCC2)[C@@H]1/C=C/c1ccccc1` (mixture of isomers), the IC50 was 68.6 nM.

Turning to `CCOC(=O)N[C@@H]1C(=O)N(C2CCCCC2)[C@@H]1/C=C/c1ccccc1` (racemic), the IC50 is over 1000 nM.

With `CCOC(=O)N[C@@H]1C(=O)N(c2ccc(C)cc2)[C@@H]1/C=C/c1ccccc1` (racemic), the IC50 is over 1000 nM.

`CCOC(=O)C(=O)N[C@@H]1C(=O)N(C2CCCCC2)[C@@H]1/C=C/c1ccccc1` (racemic): the half-inhibitory concentration (IC50) was over 1000 nM.

In the case of `CCOC(=O)C(=O)N[C@@H]1C(=O)N(c2ccc(C)cc2)[C@@H]1/C=C/c1ccccc1` (racemic), the IC50 was over 1000 nM.

`O=C(NCCCCCCNc1ccnc2cc(Cl)ccc12)N[C@H]1C(=O)N(C2CCCCC2)[C@H]1/C=C/c1ccccc1` (racemic): the half-inhibitory concentration (IC50) amounted to 52.1 nM.

In the case of `Cc1ccc(N2C(=O)[C@H](NC(=O)NCCCNc3ccnc4cc(Cl)ccc34)[C@@H]2/C=C/c2ccccc2)cc1` (racemic), the IC50 was determined as 51 nM.

Take `Cc1ccc(N2C(=O)[C@H](NC(=O)NCCCCCCNc3ccnc4cc(Cl)ccc34)[C@@H]2/C=C/c2ccccc2)cc1` (racemic): the IC50 was found to be 42.4 nM.

In the case of `O=C(NCCNc1ccnc2cc(Cl)ccc12)C(=O)N[C@@H]1C(=O)N(C2CCCCC2)[C@@H]1/C=C/c1ccccc1` (racemic), the IC50 stood at 61.3 nM.

As for `O=C(NCCCCCCNc1ccnc2cc(Cl)ccc12)C(=O)N[C@@H]1C(=O)N(C2CCCCC2)[C@@H]1/C=C/c1ccccc1` (racemic), the IC50 was 35 nM.

With `Cc1ccc(N2C(=O)[C@@H](NC(=O)C(=O)NCCNc3ccnc4cc(Cl)ccc34)[C@H]2/C=C/c2ccccc2)cc1` (racemic), the IC50 was determined as 44.8 nM.

In the case of `Cc1ccc(N2C(=O)[C@@H](NC(=O)C(=O)NCCCNc3ccnc4cc(Cl)ccc34)[C@H]2/C=C/c2ccccc2)cc1` (racemic), the IC50 came to 88.7 nM.

On to `O=C(NCCCCNc1ccnc2cc(Cl)ccc12)C(=O)N[C@@H]1C(=O)N(c2ccc(Cl)cc2)[C@@H]1/C=C/c1ccccc1` (racemic), for which the IC50 stood at 82.2 nM.

Regarding `O=C(NCCCCCCNc1ccnc2cc(Cl)ccc12)C(=O)N[C@@H]1C(=O)N(c2ccc(Cl)cc2)[C@@H]1/C=C/c1ccccc1` (racemic), the IC50 is 50.8 nM.

For `CCOC(=O)C(=O)N[C@@H]1C(=O)N(c2ccc(Cl)cc2)[C@@H]1/C=C/c1ccccc1` (relative stereo), the IC50 is over 1000 nM.

For the molecule `O=C(NCCCNc1ccnc2cc(Cl)ccc12)N[C@H]1C(=O)N(C2CCCCC2)[C@H]1/C=C/c1ccccc1` (relative stereo), the IC50 was 73 nM.

On to `O=C(NCCCCNc1ccnc2cc(Cl)ccc12)N[C@H]1C(=O)N(C2CCCCC2)[C@H]1/C=C/c1ccccc1` (relative stereo), for which the IC50 came out at 193 nM.

In the case of `C[C@@H]1CC[C@H]2[C@@H](C)C(=O)O[C@@H]3O[C@@]4(C)CC[C@@H]1[C@]32OO4` [ARTEMISININ], the IC50 is 10.6 nM.

As for `CCNCc1cc(Nc2ccnc3cc(Cl)ccc23)ccc1O` [DESETHYL AMODIAQUINE], the IC50 is 401 nM.
